The source of these data is patent EP3184514A1, “AUTOPHAGY INHIBITORS” (Deutsches Krebsforschungszentrum, priority 2015, dated 2017).

What all share (format): cell-based
Experiment [1] relates to LC3B. Put plainly: cellular autophagy screening: LC3B spots by immunocytochemistry and automated confocal imaging. The conditions noted are these: Table 1-a; relative to negative DMSO control; 100 µM, 1 hour; n.e. means no effect. The procedure:
For screening purposes, cells were seeded in 384 well plates and left over night for attachment.
Afterwards, medium was removed and 4 % (w/v) paraformaldehyde (PFA) in PBS buffer was added to the cells for 20 minutes, incubated at room temperature. Cells were permeabilized with 0.1 % (v/v) Triton X-100 for 10 min at room temperature and washed with PBS. Cells were blocked with 3 % (w/v) bovine serum albumin (BSA) in PBS for 45 minutes at 37 °C and then incubated with anti-LC3B (PM036, MBL) or anti-p62 (PM045 or M162-3, MBL) primary antibody diluted in 0.3 % BSA (1:2000 or 1:500) for 1.5-2 hours at 37 °C. Cells were washed three times with PBS.
384 well plates were then analyzed with an automated confocal microscope Opera (PerkinElmer) enabling high throughput high content screening image analysis. […] A water immersion 60x objective was used for optical slicing and stacking (5x0.5 µm stacks). […] Signal was detected with a fast gated CCD camera. Acapella software (PerkinElmer) is an algorithm based high content imaging and analysis software used in multi-parametric multiplex assays. Acapella was used to follow cell viability (i.e. number of cells) and the number of LC3B and p62 spots per cell.
The LC3B protein is a ubiquitin-like protein that can be conjugated to phosphatidylethanolamine (PE) in the membrane of the incipient autophagosome. The nonlipidated and lipidated forms are usually referred to as LC3B-I and LC3B-II, respectively. […] Autophagic flux is often inferred on the basis of LC3B-II turnover, measured by western blot (WB) or immunofluorescence (IF) in the presence and absence of lysosomal degradation. […] Lysosomal degradation can be prevented e.g. through the use of compounds that neutralize the lysosomal pH such as Bafilomycin A1 (BafA1) or chloroquine (CQ). […] An additive or supra-additive effect in LC3B-II levels (WB) and LC3B-positive punctae numbers (IF) may indicate that the treatment enhances autophagic flux. […] This assay can be complemented by simultaneous monitoring of autophagosomal substrates or autophagosomal substrate receptors (e.g. SQSTM1/p62) by WB and/or IF. For example, an increase in LC3B-II levels in combination with the accumulation of SQSTM1/p62 is indicative of a blockage of the autophagy pathway at terminal stages.

Experiment [2] has as its system PANC1, HCT116, A549. Put plainly: LC3B and p62 spots in autophagy-dependent cancer cell lines. The note with it: 1 hr, 100 µM; all three cell lines. On the procedure:
For screening purposes, cells were seeded in 384 well plates and left over night for attachment. […] For controls, cells were treated with 250 nM torin and/or 100 nM BafA1 for 2 hours.
Afterwards, medium was removed and 4 % (w/v) paraformaldehyde (PFA) in PBS buffer was added to the cells for 20 minutes, incubated at room temperature. Cells were permeabilized with 0.1 % (v/v) Triton X-100 for 10 min at room temperature and washed with PBS. Cells were blocked with 3 % (w/v) bovine serum albumin (BSA) in PBS for 45 minutes at 37 °C and then incubated with anti-LC3B (PM036, MBL) or anti-p62 (PM045 or M162-3, MBL) primary antibody diluted in 0.3 % BSA (1:2000 or 1:500) for 1.5-2 hours at 37 °C. Cells were washed three times with PBS. Secondary Alexa Fluor 488 - labeled antibodies (A-11008, Invitrogen) were diluted in 0.3 % BSA (1:2500) and incubated on cells for 15 minutes at 37 °C. Cells were washed once with PBS, incubated with DRAQ5 (#4084, Cell Signaling) diluted in PBS (1:5000) for 10 minutes and washed three times with PBS.
384 well plates were then analyzed with an automated confocal microscope Opera (PerkinElmer) enabling high throughput high content screening image analysis. Confocal images were taken at the Institute of Biochemistry II, Goethe University Medical School, Theodor-Stern-Kai 7, 60590 Frankfurt am Main, Germany. […] Signal was detected with a fast gated CCD camera. […]

The subject of experiment [3] is A549. As to the kind of experiment: MTT cell viability assay. The procedure:
(§1) The MTT assay is a colorimetric assay for assessing cell viability. NAD(P)H-dependent cellular oxidoreductase enzymes in metabolic active cells reduce the tetrazolium dye MTT 3-(4,5-dimethylthiazol-2-yl)-2,5-diphenyltetrazolium bromide to its insoluble purple formazan. All cell types were seeded in 96 well plates and left over night for attachment. Next day, cells were treated with 100 µM compound I-1 for 24, 48, 72, and 96 hours. For controls, 1 µM staurosporine and 100 nM BafA1 were used. The assay was performed according to manufacturer's instructions and the absorbance of the formazan product was measured at 595 nm.

Experiment [4] concerns HCT116. As to the kind of experiment: MTT cell viability assay. The note with it: 72 and 96 hours. On the procedure:
as §1

Experiment [5] has as its system PANC1. As to the kind of experiment: MTT cell viability assay. The note with it: 72 and 96 hours. On the procedure: as §1
For orientation: Tetrazolium dyes change colour on reduction, which living cells bring about.

`Brc1ccc(CSC2=NCN(Cc3cccnc3)CN2)cc1` [Compound I-1, 6-((4-bromobenzyl)thio)-3-(pyridin-3-ylmethyl)-1,2,3,4-tetrahydro-1,3,5-triazine]: the “LC3B inhibition cell based Fold increase of LC3B spots [DMSO control 1.0]” value in experiment [1] came to 4.9. Besides, the “number of LC3B and p62 spots” value in experiment [2] is reported as “increased”. Also, the reduced cell viability result in experiment [3] (72 and 96 hours) is given as “approximately 50%”; in experiment [5] it was “approximately 50%”. The cell viability entry in experiment [3] (48 hours) is reported as “unaffected”. The cell survival entry in experiment [4] is listed as “almost no cell survival”.
